The record followed here is patent US5593970A, “Heterocyclic anthracycline analogs” (priority 1994, dated 1997).

Holding throughout (experiment): Soft agar colony formation disk diffusion assay
(In general: A growth-free zone around the sample is the usual read-out of agar diffusion tests.)

One experiment relates to MATB/ADR. The format is cell-based, rat. The source says: (§1) A more elaborate version of this fundamental assay, the soft agar colony formation disk diffusion assay was used. This assay defines the relative activity of one particular drug versus a tumoral cell line type. The effect of the test drug against tumoral cells could be measured by its inhibitory capacity against colony formation after the delivery of the compound, in different concentrations on an filter disk(4). A modified technique of this assay was used in order to investigate the antiproliferative activity of candidate compounds. Tumoral cells from solid tumors and ascitic lines were plated separately in a two layer agar matrix. Cell lines to be tested were suspended in an upper layer of 0.4% Noble agar (Difco#00142-01) in RPMI-1066 (Gibco#3201875) at a yield varying between 10^4 to 2×10^5 cells per 60 mm Petri dish. Plating efficiency was determined for each line in order to achieve an optimal number of colonies per dish. Plates were examined before drug administration to confirm a uniform dispersion of single cells. The bottom layer consisted of 0.8% Noble agar, 0.8% Tryptic Soy Broth (difco#0037001)in CMRL-1066/Fischer's. The bottom layers were used within 2 and 9 days of preparation. Plated dishes (bottom layer of agar, upper layer of cells and administered drug were incubated in humidified atmosphere at 37° C., 5% CO2 for 10-20 days depending upon the time necessary to observe adequate colonies (defined as a cell aggregate of more than 50 cells) both control and drug inhibited. Drugs were administered on a paper filter disk (Whatman No. 1) of 6.5 mm diameter placed on the upper layer at 1/3 distance from the edge of the dish. The anti-clonogenic activity of the compounds was measured as the zone of inhibition from the disk edge to the most proximal colonies. This zone of inhibition was checked on an inverted microscope (40×) and was measured with a micrometer mounted in the eyepiece. The ocular micrometer was calibrated with a stage micrometer set for a particular combination of ocular and objective lenses. […] We made a modification of the initial technique by not plating a solid tumor and a leukemia simultaneously in the same Petri dish. Anti-clonogenic tests performed on leukemia cell line have helped in the discovery of the majority of current clinically used cytostatic drugs. Our tests on solid tumor lines (animal or human) may help define active compounds with solid tumor specificity. […] Murine tumors were maintained IN VIVO in order to diminish the selection of subpopulations of cells normally present in the heterogenous IN VIVO tumor. The actual drug sensitivity assay was done IN VITRO. For these experiments cells from freshly excised tumors or from ascitic fluids were maintained in RPMI-1066. Both compounds were dissolved in DMSO (1 mg/100 ul) and brought to final volume (250 ul) with Millipore deionized sterile water. Further dilutions were made with […] volume of 25 ul of freshly prepared solution was placed on the filter disk and allowed to dry.

For the next experiment, the system named is MATB.WT. The format is cell-based, rat.
Excerpt: as §1

In another experiment the test system is P388/ADR. The format is cell-based, murine.
Excerpt: as §1

A further experiment has as its system M5076. The format is cell-based, murine.
Excerpt: as §1

A further experiment concerns P388. Type of experiment: cell-based, murine.
Excerpt: as §1

Another experiment has as its system B16. The format is cell-based, murine.
Excerpt: as §1

Another experiment relates to HT29. Type of experiment: cell-based, human. The source says: A more elaborate version of this fundamental assay, the soft agar colony formation disk diffusion assay was used. […] The effect of the test drug against tumoral cells could be measured by its inhibitory capacity against colony formation after the delivery of the compound, in different concentrations on an filter disk(4). A modified technique of this assay was used in order to investigate the antiproliferative activity of candidate compounds. Tumoral cells from solid tumors and ascitic lines were plated separately in a two layer agar matrix. Cell lines to be tested were suspended in an upper layer of 0.4% Noble agar (Difco#00142-01) in RPMI-1066 (Gibco#3201875) at a yield varying between 10^4 to 2×10^5 cells per 60 mm Petri dish. Plating efficiency was determined for each line in order to achieve an optimal number of colonies per dish. […] The bottom layer consisted of 0.8% Noble agar, 0.8% Tryptic Soy Broth (difco#0037001)in CMRL-1066/Fischer's. The bottom layers were used within 2 and 9 days of preparation. Plated dishes (bottom layer of agar, upper layer of cells and administered drug were incubated in humidified atmosphere at 37° C., 5% CO2 for 10-20 days depending upon the time necessary to observe adequate colonies (defined as a cell aggregate of more than 50 cells) both control and drug inhibited. Drugs were administered on a paper filter disk (Whatman No. 1) of 6.5 mm diameter placed on the upper layer at 1/3 distance from the edge of the dish. The anti-clonogenic activity of the compounds was measured as the zone of inhibition from the disk edge to the most proximal colonies. This zone of inhibition was checked on an inverted microscope (40×) and was measured with a micrometer mounted in the eyepiece. The ocular micrometer was calibrated with a stage micrometer set for a particular combination of ocular and objective lenses. […] We made a modification of the initial technique by not plating a solid tumor and a leukemia simultaneously in the same Petri dish. […] HUMAN TUMORS. […] LS180 (13) and BE1(14) were obtained from the Oncology Dept. of the Montreal General Hospital. […] Cell lines were routinely passaged twice a week by trypsinization and maintained in 25, or 75-sq. cm Falcon Plastic flasks at 37° C., 5% CO2 in humidified atmosphere. Both compounds were dissolved in DMSO (1 mg/100 ul) and brought to final volume (250 ul) with Millipore deionized sterile water. Further dilutions were made with […] volume of 25 ul of freshly prepared solution was placed on the filter disk and allowed to dry.

For another experiment, the system named is MCF7/ADR. The format is cell-based, human. The source says:
(§2) A more elaborate version of this fundamental assay, the soft agar colony formation disk diffusion assay was used. This assay defines the relative activity of one particular drug versus a tumoral cell line type. The effect of the test drug against tumoral cells could be measured by its inhibitory capacity against colony formation after the delivery of the compound, in different concentrations on an filter disk(4). A modified technique of this assay was used in order to investigate the antiproliferative activity of candidate compounds. Tumoral cells from solid tumors and ascitic lines were plated separately in a two layer agar matrix. Cell lines to be tested were suspended in an upper layer of 0.4% Noble agar (Difco#00142-01) in RPMI-1066 (Gibco#3201875) at a yield varying between 10^4 to 2×10^5 cells per 60 mm Petri dish. Plating efficiency was determined for each line in order to achieve an optimal number of colonies per dish. Plates were examined before drug administration to confirm a uniform dispersion of single cells. The bottom layer consisted of 0.8% Noble agar, 0.8% Tryptic Soy Broth (difco#0037001)in CMRL-1066/Fischer's. The bottom layers were used within 2 and 9 days of preparation. Plated dishes (bottom layer of agar, upper layer of cells and administered drug were incubated in humidified atmosphere at 37° C., 5% CO2 for 10-20 days depending upon the time necessary to observe adequate colonies (defined as a cell aggregate of more than 50 cells) both control and drug inhibited. Drugs were administered on a paper filter disk (Whatman No. 1) of 6.5 mm diameter placed on the upper layer at 1/3 distance from the edge of the dish. The anti-clonogenic activity of the compounds was measured as the zone of inhibition from the disk edge to the most proximal colonies. This zone of inhibition was checked on an inverted microscope (40×) and was measured with a micrometer mounted in the eyepiece. The ocular micrometer was calibrated with a stage micrometer set for a particular combination of ocular and objective lenses. […] We made a modification of the initial technique by not plating a solid tumor and a leukemia simultaneously in the same Petri dish. Anti-clonogenic tests performed on leukemia cell line have helped in the discovery of the majority of current clinically used cytostatic drugs. Our tests on solid tumor lines (animal or human) may help define active compounds with solid tumor specificity. […] HUMAN TUMORS. […] LS180 (13) and BE1(14) were obtained from the Oncology Dept. of the Montreal General Hospital. […] Cell lines were routinely passaged twice a week by trypsinization and maintained in 25, or 75-sq. cm Falcon Plastic flasks at 37° C., 5% CO2 in humidified atmosphere. Both compounds were dissolved in DMSO (1 mg/100 ul) and brought to final volume (250 ul) with Millipore deionized sterile water. Further dilutions were made with […] volume of 25 ul of freshly prepared solution was placed on the filter disk and allowed to dry.

The next experiment deals with LS180. The format is cell-based, human.
Excerpt: as §2

The test system of the next experiment is MCF7. Type of experiment: cell-based, human.
Excerpt: as §2

SMILES strings stand for the structures.

On to `CCOC(=O)C1Cc2c(O)c3c(c(O)c2CS1)C(=O)c1ccccc1C3=O` (stereo not shown) [BCH-713, 3-carbethoxy-5,12-dihydroxy-1,2,3,4-tetrahydro-(2-sulfur)naphthacene-6,11-dione], for which the zone of inhibition is 0 Zone Units in the experiment with MATB/ADR (10 μg/DISK); 0 Zone Units in the experiment on MATB/ADR (100 μg/DISK); 0 Zone Units in the experiment on MATB.WT (10 μg/DISK); 27.4 ± 4.3 Zone Units with MATB.WT (100 μg/DISK); 0 Zone Units in the experiment on P388/ADR (10 μg/DISK); 61.0 ± 0.0 Zone Units with P388/ADR (100 μg/DISK). For the same compound, the zone of inhibition in the experiment on M5076 (10 μg/DISK) stood at 0 Zone Units; with M5076 (100 μg/DISK), 42.7 ± 8.6 Zone Units; in the experiment with P388 (10 μg/DISK), 0 Zone Units; with P388 (100 μg/DISK), 45.7 ± 21.5 Zone Units; in the experiment with B16 (10 μg/DISK) it was 0 Zone Units; in the experiment with B16 (100 μg/DISK) it was 24.4 ± 8.6 Zone Units. For the same compound, the zone of inhibition in the experiment on HT29 (10 μg/DISK) is on record as 0 Zone Units; in the experiment with HT29 (100 μg/DISK) it was 0 Zone Units; in the experiment with MCF7/ADR (10 μg/DISK) it was 24.0 ± 8.6 Zone Units; in the experiment with MCF7/ADR (100 μg/DISK), 94.5 ± 64.7 Zone Units; with LS180 (10 μg/DISK), 0 Zone Units; with LS180 (100 μg/DISK), 45.7 ± 21.5 Zone Units. For the same compound, the zone of inhibition with MCF7 (10 μg/DISK) and in the experiment with MCF7 (100 μg/DISK) was 0 Zone Units throughout.
For `COCOCC(=O)C1CC2=C(CO1)C(=O)c1c(cc3ccccc3c1O)C2=O` (stereo not shown) [BCH-714, 3-(2-methoxymethoxy)aceto-11-hydroxy-1,2,3,4-tetrahydro-(2-oxygen)-napthacene-5,12-dione], the zone of inhibition with MATB/ADR (10 μg/DISK), in the experiment on MATB/ADR (100 μg/DISK), in the experiment on MATB.WT (10 μg/DISK), in the experiment on MATB.WT (100 μg/DISK), in the experiment with P388/ADR (10 μg/DISK) and with P388/ADR (100 μg/DISK) was 0 Zone Units each time. Further, the zone of inhibition in the experiment with M5076 (10 μg/DISK) came to 15.5 ± 5.0 Zone Units; in the experiment on M5076 (100 μg/DISK), 55.0 ± 8.4 Zone Units; in the experiment on P388 (10 μg/DISK) it was 0 Zone Units; in the experiment on P388 (100 μg/DISK), 27.0 ± 4.2 Zone Units; with B16 (10 μg/DISK), 0 Zone Units; in the experiment on B16 (100 μg/DISK), 0 Zone Units. Moreover, the zone of inhibition amounted to 0 Zone Units with HT29 (10 μg/DISK); 0 Zone Units with HT29 (100 μg/DISK); 0 Zone Units in the experiment with MCF7/ADR (10 μg/DISK); 0 Zone Units in the experiment on MCF7/ADR (100 μg/DISK); 9.0 ± 4.2 Zone Units with LS180 (10 μg/DISK); 42.0 ± 26.0 Zone Units in the experiment on LS180 (100 μg/DISK). Also, the zone of inhibition with MCF7 (10 μg/DISK) and with MCF7 (100 μg/DISK) was 0 Zone Units in each case.
